The values below come from PMC10628895, “Conformationally Selective 2-Aminotetralin Ligands Targeting the alpha2A- and alpha2C-Adrenergic Receptors” (ACS Chemical Neuroscience, 2023).

Series [1] deals with T1, human wild-type α2AR (Homo sapiens, UniProt P08913).
T1 sequence (P08913 1-465): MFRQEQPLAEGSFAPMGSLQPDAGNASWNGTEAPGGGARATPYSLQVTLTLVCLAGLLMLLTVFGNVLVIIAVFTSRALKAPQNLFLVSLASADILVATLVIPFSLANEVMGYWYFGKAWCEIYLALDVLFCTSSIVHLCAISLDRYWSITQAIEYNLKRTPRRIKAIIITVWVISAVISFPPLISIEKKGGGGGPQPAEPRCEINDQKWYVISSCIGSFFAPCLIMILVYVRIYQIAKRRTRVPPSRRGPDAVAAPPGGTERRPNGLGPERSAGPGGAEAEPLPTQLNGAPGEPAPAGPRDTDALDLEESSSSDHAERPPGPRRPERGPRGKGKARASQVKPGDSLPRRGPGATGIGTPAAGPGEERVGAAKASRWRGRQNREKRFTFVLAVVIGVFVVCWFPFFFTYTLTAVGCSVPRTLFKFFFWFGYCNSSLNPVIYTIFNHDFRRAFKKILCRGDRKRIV
In words: Radioligand binding with [3H]rauwolscine (competition and saturation), membranes of transfected HEK293 cells. On the set-up: host or cells: mouse connective-tissue cells stably expressing the receptor.

Series [2] concerns the target T2, human wild-type α2CR (Homo sapiens, UniProt P18825).
T2 sequence (P18825 1-462): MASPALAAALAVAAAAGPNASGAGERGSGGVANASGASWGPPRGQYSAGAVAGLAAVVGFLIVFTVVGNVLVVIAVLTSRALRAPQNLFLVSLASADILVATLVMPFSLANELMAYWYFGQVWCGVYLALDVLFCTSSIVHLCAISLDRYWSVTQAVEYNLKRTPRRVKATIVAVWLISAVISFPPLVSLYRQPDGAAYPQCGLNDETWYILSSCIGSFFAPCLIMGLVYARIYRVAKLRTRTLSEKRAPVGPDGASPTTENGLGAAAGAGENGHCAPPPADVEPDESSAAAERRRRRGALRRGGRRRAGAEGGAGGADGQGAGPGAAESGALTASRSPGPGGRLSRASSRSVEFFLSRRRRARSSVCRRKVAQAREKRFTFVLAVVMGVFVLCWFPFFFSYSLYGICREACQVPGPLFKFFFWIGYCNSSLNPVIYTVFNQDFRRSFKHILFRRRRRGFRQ
The description is as above. Further details: host or cells: mouse connective-tissue cells stably expressing the receptor.

The target in series [3] is T1, human wild-type α2AR. Put plainly: cAMP accumulation, LANCE Ultra cAMP TR-FRET immunoassay, cells stably expressing α2AR. The conditions noted are these: for functional activity at the α2AR (in words): cAMP formation. A general note: Changes in cAMP serve as a functional read-out for many G protein-coupled receptors.
Procedure: (§1) Lofexidine was chosen as the reference ligand due to its ongoing use in in vivo studies evaluating 5-SATs for alleviation of opioid withdrawal symptoms.
(§2) Percent change in cAMP over forskolin-stimulated baseline was determined, and then normalized as a function of the percent change stimulated by lofexidine.
(§3) Receptor-mediated inhibition or stimulation of adenylyl cyclase was measured in cells stably expressing either α2AR or α2CR a LANCE Ultra cAMP assay kit (PerkinElmer, Waltham, MA), a time-resolved fluorescence energy transfer (TR-FRET) immunoassay, in a manner consistent with the manufacturer’s recommendations. Minor modifications were made to optimize conditions. […] Each concentration of ligand was applied in triplicate to the cells. A forskolin concentration of 600 nM was applied to the cells to generate a baseline, with the concentration chosen to accommodate the assay window. Cells were incubated for 30 min at 37 °C (α2AR assays) and for 2 h at room temperature (α2CR assays); time was chosen based on optimization-determined ideal conditions and activation kinetics.[59] Cells were then lysed and incubated with Eu-chelated tracer and Ulight anti-cAMP for 1 h. […] The concentration of cAMP present in each well was interpolated from this curve using the raw fluorescence value.
Series [4] addresses T2, human wild-type α2CR. Put plainly: cAMP accumulation, LANCE Ultra cAMP TR-FRET immunoassay, cells stably expressing α2CR. Conditions: for functional activity at the α2CR (in words): cAMP formation.
Procedure: as §1, §2, §3
For series [5], the target named is T2, human wild-type α2CR. Put plainly: Radioligand binding with [3H]rauwolscine (competition and saturation), membranes of transfected HEK293 cells. Further details: host or cells: mouse connective-tissue cells stably expressing the receptor. Conditions: [3H]rauwolscine competition, mean ± SD, read-out: Affinity (Ki ± SD; nM) α2CR. As for the experimental part:
Cells were grown in 10-cm plates and allowed to reach log growth phase (equivalent to about 70–90% confluency) before transfection. A transfection cocktail containing 3 mL of Opti-MEM (Gibco, Waltham, MA), 10 μg of cDNA, and 30 μL of linear polyethyleneimine “max” (molecular weight ∼ 40 000 g/mol, Polysciences Inc., Warrington, PA) was added to each plate and then incubated with an additional 3 mL of supplemented MEM for 48 h. Human wild-type α2-adrenergic GPCR clones, encoded in a pcDNA3.1(+) vector, were obtained from the cDNA Resource Center (Bloomsburg, PA). Cells were transiently transfected to express the α2AR or α2CR, and membranes were isolated for use in radioligand binding assays.
Cell membrane isolates were obtained following transfection procedure via a series of three 10-min, 12000g centrifugations homogenized via a tissue grinder. Saturation and competitive radioligand displacement assays conducted in 96-well assay plates were performed using membrane isolates. The bicinchoninic acid (BCA) protein assay (Thermo Scientific) kit was used to quantify protein expression.
Each concentration was assessed in quadruplicate, and each competitive binding assay was performed in at least three distinct replicates. Nonspecific binding was determined using 10 μM clozapine. Data were analyzed using the nonlinear regression function “One-site-Fit Ki” in Prism, wherein the Ki was calculated from the experimentally derived IC50 via the Cheng–Prusoff equation[58] [drawing 1]

In series [6] the test system is mouse models of autism spectrum disorder (ASD). On the set-up: method as in PMID 32566916, PMID 26011730, PMID 36473166. The conditions noted are these: orally active; cited from earlier work.
A further series has as its system rodents. Conditions: cited from earlier work.
Setting [7] is: read-out: Emax α2AR, percent maximum response normalized to lofexidine, mean ± SD, NC = no significant change from forskolin-established baseline signaling.
The mark [8] stands for this setting: [3H]rauwolscine competition, HEK293 membranes, mean ± SD, read-out: Affinity (Ki ± SD; nM) α2AR.

Where two headings read alike, the source gives them in different places.

Take `CCCN(CCC)[C@H]1CCc2c(cccc2-c2ccccc2)C1` [(S)-5]: the Ki (usually a measure of affinity in units of concentration, obtained from inhibition or displacement) came to 180 ± 19 nM at human wild-type α2AR [1] and 0.37 ± 0.014 µM on human wild-type α2CR [2].

The compound `CN(C)[C@H]1CCc2c(cccc2-c2ccccc2Cl)C1` [(S)-3] displayed a Ki on human wild-type α2AR [1] of 5.1 ± 0.52 nM. For the same compound, the Ki at human wild-type α2CR [2] was found to be 0.017 ± 0.0041 µM. For the same compound, the EC50 (usually the concentration that produces a half-maximal response) at human wild-type α2AR [3] amounted to 0.0013 ± 0.00018 µM. Further, the Emax (commonly the greatest response seen or fitted, relative to the assay's reference) on human wild-type α2AR [3] (setting [7]) was 47 ± 2.9%. Besides, on human wild-type α2CR [4], the IC50 (commonly the midpoint of a concentration-inhibition curve) turned out to be 0.13 ± 0.0024 µM and the “functional activity at the α2CR (in words)” value is listed as “inverse agonists”.

With `CN(C)[C@H]1CCc2c(cccc2-c2cccn2C)C1` [(S)-10], the Ki at human wild-type α2AR [1] turned out to be 12 ± 0.41 nM; on human wild-type α2CR [2], 0.05 ± 0.0041 µM. Besides, the “fold higher affinity compared to the FAT compound at α2AR” value on human wild-type α2AR [1] is listed as 5–10 fold. The IC50 on human wild-type α2AR [3] was determined as 0.011 ± 0.00026 µM; on human wild-type α2CR [4], 0.092 ± 0.0059 µM. The “functional activity at the α2AR (in words)” value on human wild-type α2AR [3] is on record as “inverse agonist”.

The compound `CN(C)[C@H]1CCc2c(cccc2-c2cccc3ccccc23)C1` [(S)-7] had a Ki at human wild-type α2AR [1] of 27 ± 6.3 nM. The compound further yielded a Ki on human wild-type α2CR [2] of 0.18 ± 0.038 µM. For the same compound, at human wild-type α2AR [3], the EC50 turned out to be 0.082 ± 0.0083 µM and the “functional activity at the α2AR (in words)” value was “agonist activity”. Besides, the “fold less potent than FPT at the α2AR” value at human wild-type α2AR [3] (agonist potency) was found to be 150 fold. Moreover, the Emax at human wild-type α2AR [3] (setting [7]) worked out at 14 ± 4.3%. On human wild-type α2CR [4], the IC50 was found to be 0.26 ± 0.044 µM and the “functional activity at the α2CR (in words)” value was “inverse agonism”. Further, the “fold less efficacious than the other 5-SATs at the α2CR” value at human wild-type α2CR [4] (inverse agonist efficacy) was “roughly 2 fold”.

Consider `CCCN(CCC)[C@@H]1CCc2c(cccc2-c2ccccc2)C1` [(R)-5], for which the Ki was found to be 190 ± 30 nM on human wild-type α2AR [1] and 0.58 ± 0.054 µM on human wild-type α2CR [2].

As for `Fc1ccccc1-c1cccc2c1CC[C@@H](N1CCCC1)C2` [(R)-4, (R)-1-(5-(2-Fluorophenyl)-1,2,3,4-tetrahydronaphthalen-2-yl)pyrrolidine], the Ki on human wild-type α2AR [1] (setting [8]) came to 1000 ± 170 nM; at human wild-type α2CR [5], 1500 ± 270 nM.

As for `CN(C)[C@@H]1CCc2c(cccc2-c2ccccc2Cl)C1` [(R)-3], the values for the Ki at human wild-type α2AR [1] and at human wild-type α2CR [2] were 490 ± 65 nM and 0.5 ± 0.086 µM, respectively.

As for `CN(C)[C@H]1CCc2c(cccc2-c2cccs2)C1` [(S)-9], the figures for the Ki on human wild-type α2AR [1] and on human wild-type α2CR [2] were 6.2 ± 1.5 nM and 0.048 ± 0.00057 µM, respectively. For the same compound, at human wild-type α2AR [1], the “fold higher affinity compared to the FAT compound at α2AR” value is 5–10 fold. For the same compound, the “functional activity at the α2AR (in words)” value at human wild-type α2AR [3] was “no significant change over baseline”. Moreover, on human wild-type α2CR [4], the “functional activity at the α2CR (in words)” value was “neutral antagonist”.

With `CN(C)[C@@H]1CCc2c(cccc2-c2ccccc2)C1` [(R)-1], the Ki at human wild-type α2AR [1] turned out to be 320 ± 40 nM; at human wild-type α2CR [2], 0.5 ± 0.075 µM.

With `CCCN(CCC)[C@H]1CCc2c(cccc2-c2ccccc2Cl)C1` [(S)-6], the Ki at human wild-type α2AR [1] is 67 ± 11 nM; on human wild-type α2CR [2] it was 0.28 ± 0.02 µM.

As to `Fc1ccccc1-c1cccc2c1CC[C@H](N1CCCC1)C2` [(S)-4, (S)-1-(5-(2-Fluorophenyl)-1,2,3,4-tetrahydronaphthalen-2-yl)pyrrolidine], the Ki at human wild-type α2AR [1] (setting [8]) was determined as 5.7 ± 1.4 nM. For the same compound, the inhibition constant Ki on human wild-type α2CR [5] turned out to be 5.2 ± 0.3 nM. Further, the EC50 on human wild-type α2AR [3] came to 0.0011 ± 0.00016 µM. The Emax on human wild-type α2AR [3] (read-out: Emax α2AR) is 46 ± 3%. Further, on human wild-type α2CR [4], the IC50 is 0.048 ± 0.0018 µM and the “functional activity at the α2CR (in words)” value is “inverse agonists”. Moreover, on human wild-type α2CR [4] (inverse agonist potency), the “fold higher potency than 5-PAT at the α2CR” value is “about 9 fold”, the “fold higher potency than CPT at the α2CR” value is about 3 fold and the “fold higher potency than FPT at the α2CR” value is listed as “about 2 fold”.

Consider `CN(C)[C@H]1CCc2c(cccc2-c2ccco2)C1` [(S)-8], for which the Ki on human wild-type α2AR [1] was determined as 59 ± 1.4 nM; at human wild-type α2CR [2], 0.15 ± 0.0035 µM.

`CCCN(CCC)[C@@H]1CCc2c(cccc2-c2ccccc2Cl)C1` [(R)-6]: the Ki at human wild-type α2AR [1] was determined as 94 ± 26 nM; at human wild-type α2CR [2], 0.34 ± 0.095 µM.

In the case of `CN(C)[C@@H]1CCc2c(cccc2-c2ccccc2F)C1` [(R)-2, (R)-5-(2-Fluorophenyl)-N,N-dimethyl-1,2,3,4-tetrahydronaphthalen-2-amine], the Ki at human wild-type α2AR [1] was found to be 2500 ± 810 nM; on human wild-type α2CR [2], 0.68 ± 0.12 µM.

At human wild-type α2AR [1], `CN(C)[C@H]1CCc2c(cccc2-c2ccccc2)C1` [(S)-1] gave a Ki of 6.9 ± 1.8 nM. The affinity on human wild-type α2CR [2] corresponds to a Ki of 0.035 ± 0.0046 µM. For the same compound, at human wild-type α2AR [3], the EC50 was found to be 0.0014 ± 0.00023 µM and the “functional activity at the α2AR (in words)” value is given as “agonist activity”. Further, the “Emax α2AR” value on human wild-type α2AR [3] (percent maximum response normalized to lofexidine, mean ± SD, NC = no significant change from forskolin-established baseline signaling, listed as 1 (5-PAT)) worked out at 24 ± 4.0%. For the same compound, the Emax on human wild-type α2AR [3] (setting [7]) was about 25%. For the same compound, at human wild-type α2CR [4], 0.37 ± 0.0019 µM corresponded to half-maximal inhibition (IC50) and the “functional activity at the α2CR (in words)” value is “inverse agonism”.

Regarding `CN(C)[C@@H]1CCc2c(cccc2-c2ccco2)C1` [(R)-8], the Ki on human wild-type α2AR [1] is 1300 ± 330 nM; at human wild-type α2CR [2], 0.46 ± 0.072 µM.

As for `CN(C)[C@@H]1CCc2c(cccc2-c2cccn2C)C1` [(R)-10], the Ki at human wild-type α2AR [1] stood at 130 ± 33 nM; on human wild-type α2CR [2], 0.31 ± 0.039 µM.

As to `CC(Oc1c(Cl)cccc1Cl)C1=NCCN1` (centres unmarked) [Lofexidine, reference compound], on human wild-type α2CR [5], the Ki turned out to be 22 ± 4.6 nM. In addition, at human wild-type α2CR [4], the EC50 came out at 0.0049 ± 0.0012 µM and the “functional activity at the α2CR (in words)” value is listed as “agonist”. Besides, the Emax on human wild-type α2CR [4] (read-out: Emax α2CR) stood at 100 ± 3.4%.

With `CN(C)[C@H]1CCc2c(cccc2-c2ccccc2F)C1` [(S)-2, (2S)-5-(2′-fluorophenyl)-N,N-dimethyl-1,2,3,4-tetrahydronaphthalen-2-amine], in series [6], the “effect in mouse models of autism spectrum disorder (in words)” value is “improves repetitive behaviors, social behaviors, anxiety behaviors, and ameliorates seizures”. The “effect on locomotor activity (in words)” value in the series on rodents is given as “did not impact locomotor activity”. In addition, the affinity at human wild-type α2AR [1], expressed as Ki, was 3.5 ± 0.97 nM. For the same compound, the Ki at human wild-type α2CR [2] stood at 0.019 ± 0.0046 µM. Further, the EC50 at human wild-type α2AR [3] was found to be 0.00055 ± 0.00015 µM. In addition, on human wild-type α2AR [3] (setting [7]), the Emax came out at 45 ± 1.9%. On human wild-type α2CR [4], the IC50 is 0.079 ± 0.0017 µM and the “functional activity at the α2CR (in words)” value was “inverse agonists”.
